Values quoted from earlier work, collected in US12246054B2, “Method of treating diseases” (Amryt Endo, Inc., priority 2015, dated 2025).

Tests used:
[1] = in vivo
[2] = test system: idiopathic intracranial hypertension; conditions: IIH patients; injections

## C[C@@H](O)[C@@H]1NC(=O)[C@H](CCCCN)NC(=O)[C@@H](Cc2c[nH]c3ccccc23)NC(=O)[C@H](Cc2ccccc2)NC(=O)[C@@H](NC(=O)[C@H](N)Cc2ccccc2)CSSC[C@@H](C(=O)N[C@H](CO)[C@@H](C)O)NC1=O [octreotide]
[1]
  acute rebound GH hypersecretion: absence of acute rebound GH hypersecretion
  circulating half-life: 2 h
[2]
  Patients in whom headache and papilledema subsided and visual disturbances improved (response rate): about 90%
